From PubChem BioAssay AID330 (DTP/NCI, 2004)
Inconclusive results and toxic doses are left out. Rule for the calls: active = survival T/C of 150% or more; inactive = T/C below 125% in these data.

Tested on: P388 leukemia ip, CD2F1 mice, survival T/C
Test: NCI In Vivo Anticancer Drug Screen. Data for tumor model P388 Leukemia (intraperitoneal) in CD2F1 (CDF1) mice
Conditions: endpoint: median survival time, higher = longer survival
Summary of the method: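 Mice carrying the transplanted tumor received test compound or vehicle. Survival was recorded in each group, and the value is the treated-group measurement divided by that of the vehicle-treated control group.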

[1] = dose: 12.5 mg/kg/injection, schedule: Q01DX009 (ip), vehicle: saline with Tween-80
[2] = dose: 25.0 mg/kg/injection, schedule: Q01DX009 (ip), vehicle: saline with Tween-80
[3] = dose: 50.0 mg/kg/injection, schedule: Q01DX009 (ip), vehicle: saline with Tween-80

Measured: T/C

CCCCCCC(/C=C/c1ccc(Cl)c(Cl)c1)=N\Nc1ccccc1
inactive: dose: 6.25 mg/kg/injection, schedule: Q01DX009 (ip), vehicle: saline with Tween-80 103 % of control | [1] 97 % of control | [2] 103 % of control | [3] 100 % of control

COC(=O)c1cc2cccn2cn1
inactive: [1] 115 % of control | [2] 115 % of control | [3] 104 % of control | dose: 100.0 mg/kg/injection, schedule: Q01DX009 (ip), vehicle: saline with Tween-80 91 % of control | dose: 200.0 mg/kg/injection, schedule: Q01DX009 (ip), vehicle: saline with Tween-80 100 % of control

Cc1c(O)ccc2c1OCC(c1ccc(Cl)cc1)C2 (stereo not given)
inactive: dose: 60.0 mg/kg/injection, schedule: Q01DX005 (ip), vehicle: saline with Tween-80 104 % of control | dose: 120.0 mg/kg/injection, schedule: Q01DX005 (ip), vehicle: saline with Tween-80 91 % of control | dose: 240.0 mg/kg/injection, schedule: Q01DX005 (ip), vehicle: saline with Tween-80 92 % of control

O=c1[nH]cnc2nc(SCc3ccc([N+](=O)[O-])cc3)[nH]c12
inactive: dose: 60.0 mg/kg/injection, schedule: Q01DX005 (ip), vehicle: Klucel (hydroxypropylcellulose) (HPC) 105 % of control | dose: 120.0 mg/kg/injection, schedule: Q01DX005 (ip), vehicle: Klucel (hydroxypropylcellulose) (HPC) 102 % of control | dose: 240.0 mg/kg/injection, schedule: Q01DX005 (ip), vehicle: Klucel (hydroxypropylcellulose) (HPC) 108 % of control

CC1(OC(=O)c2ccccc2)CC(C)(C)[N+]([O-])=N1 (stereo not given)
inactive: dose: 12.5 mg/kg/injection, schedule: Q01DX005 (ip), vehicle: other 97 % of control | dose: 25.0 mg/kg/injection, schedule: Q01DX005 (ip), vehicle: other 98 % of control | dose: 50.0 mg/kg/injection, schedule: Q01DX005 (ip), vehicle: other 100 % of control | dose: 100.0 mg/kg/injection, schedule: Q01DX005 (ip), vehicle: other 90 % of control | dose: 200.0 mg/kg/injection, schedule: Q01DX005 (ip), vehicle: other 93 % of control
